Data from PubChem BioAssay (NCI).
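48-hour exposure; five concentrations; linearly interpolated endpoints. At the GI50, growth is halved. TGI is the concentration that stops growth completely.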

Experiments:
Test in all cases: NCI-60 cell line screen, 48 h
[1] = system: SK-MEL-5 melanoma
[2] = system: MALME-3M melanoma
[3] = system: NCI-H522 lung
[4] = system: SNB-19 CNS
[5] = system: MDA-MB-231 breast
[6] = system: HCT-15 colon
[7] = system: NCI-H23 lung
[8] = system: SK-MEL-28 melanoma
[9] = system: MDA-MB-435
[10] = system: SF-295 CNS
[11] = system: PC-3 prostate
[12] = system: EKVX NSCLC
[13] = system: HCT-116 colon
[14] = system: SNB-75 CNS
[15] = system: SR leukemia
[16] = system: MOLT-4 leukemia
[17] = system: 786-0 renal
[18] = system: HL-60(TB) leukemia
[19] = system: SN12C renal
[20] = system: SF-539 CNS
[21] = system: KM12 colon
[22] = system: HCC-2998 colon
[23] = system: MCF7 breast
[24] = system: NCI-H226 lung
[25] = system: A498 renal
[26] = system: HT29 colon
[27] = system: ACHN renal
[28] = system: LOX IMVI melanoma
[29] = system: OVCAR-4 ovarian
[30] = system: HOP-62 NSCLC
[31] = system: SF-268 CNS
[32] = system: T-47D breast
[33] = system: HS 578T breast
[34] = system: CAKI-1 renal
[35] = system: UO-31 renal
[36] = system: UACC-62 melanoma
[37] = system: SK-MEL-2 melanoma
[38] = system: UACC-257 melanoma
[39] = system: NCI/ADR-RES ovarian
[40] = system: TK-10 renal
[41] = system: K-562 leukemia
[42] = system: IGROV1 ovarian
[43] = system: HOP-92 NSCLC
[44] = system: DU-145 prostate
[45] = system: SK-OV-3 ovarian
[46] = system: OVCAR-3 ovarian
[47] = system: RPMI-8226 leukemia
[48] = system: A549 NSCLC
[49] = system: BT-549 breast
[50] = system: M14 melanoma
[51] = system: CCRF-CEM leukemia
[52] = system: RXF 393 renal
[53] = system: COLO 205 colon
[54] = system: OVCAR-8 ovarian
[55] = system: SW-620 colon
[56] = system: NCI-H460 lung
[57] = system: U251 CNS
[58] = system: OVCAR-5 ovarian

`COc1ccc(C(O)c2cc3c(N)c(C(=O)Nc4ccc(Cl)cc4)sc3nc2C)cc1` (stereo not given) showed a GI50 [1] of 2.74 µM, a TGI [1] of 10.2 µM and a GI50 [2] of 2.04 µM. The TGI [2] was 18.9 µM, the GI50 [3] was 4.05 µM and the TGI [3] was 38.1 µM. For the same compound, the GI50 [4] was 4.16 µM, the TGI [4] was 44.6 µM and the GI50 [5] was 4.9 µM. For the same compound, the TGI [5] was 28.8 µM, the GI50 [6] was 0.719 µM and the TGI [6] was 12.9 µM. The GI50 [7] was 5.07 µM, the TGI [7] was 52.5 µM and the GI50 [8] was 6.49 µM. The TGI [8] was 57.7 µM, the GI50 [9] was 0.317 µM and the TGI [9] was 1.17 µM. The GI50 [10] was 2.14 µM, the TGI [10] was 11.6 µM and the GI50 [11] was 3.27 µM. The TGI [11] was 22.2 µM, the GI50 [12] was 3.88 µM and the TGI [12] was 30.7 µM. The GI50 [13] was 2.01 µM, the TGI [13] was 14.3 µM and the GI50 [14] was 1.88 µM. For the same compound, the TGI [14] was 7.25 µM, the GI50 [15] was 0.44 µM and the TGI [15] was greater than 100 µM. It also gave a GI50 [16] of 3.09 µM, a TGI [16] greater than 100 µM and a GI50 [17] of 8.2 µM. For the same compound, the TGI [17] was 31.8 µM, the GI50 [18] was 1.91 µM and the TGI [18] was 9.63 µM. It also gave a GI50 [19] of 5.53 µM, a TGI [19] of 24.9 µM and a GI50 [20] of 2.4 µM. It also gave a TGI [20] of 8.08 µM, a GI50 [21] of 1.64 µM and a TGI [21] of 7.1 µM. The GI50 [22] was 3.04 µM, the TGI [22] was 20.8 µM and the GI50 [23] was 0.707 µM. For the same compound, the TGI [23] was 17.2 µM, the GI50 [24] was 2.85 µM and the TGI [24] was 9.47 µM. It also gave a GI50 [25] of 3 µM, a TGI [25] of 12.4 µM and a GI50 [26] of 2.49 µM. It also gave a TGI [26] of 8.73 µM, a GI50 [27] of 3.53 µM and a TGI [27] of 15.7 µM. It also gave a GI50 [28] of 2.08 µM, a TGI [28] of 13.2 µM and a GI50 [29] of 2.42 µM. For the same compound, the TGI [29] was 7.47 µM, the GI50 [30] was 3.24 µM and the TGI [30] was 19.2 µM. It also gave a GI50 [31] of 3.96 µM, a TGI [31] of 19.6 µM and a GI50 [32] of 3.29 µM. For the same compound, the TGI [32] was 50.5 µM, the GI50 [33] was 1.82 µM and the TGI [33] was 5.3 µM. For the same compound, the GI50 [34] was 2.79 µM, the TGI [34] was 15.6 µM and the GI50 [35] was 3.8 µM. For the same compound, the TGI [35] was 23 µM, the GI50 [36] was 1.86 µM and the TGI [36] was 32.8 µM. For the same compound, the GI50 [37] was 8.6 µM, the TGI [37] was 69.6 µM and the GI50 [38] was 4.99 µM. The TGI [38] was 57.5 µM, the GI50 [39] was 3.86 µM and the TGI [39] was 28 µM. It also gave a GI50 [40] of 7.85 µM, a TGI [40] of 43.9 µM and a GI50 [41] of 0.694 µM. For the same compound, the TGI [41] was greater than 100 µM, the GI50 [42] was 3.22 µM and the TGI [42] was 28.6 µM. It also gave a GI50 [43] of 2.37 µM, a TGI [43] of 18.3 µM and a GI50 [44] of 2.71 µM. The TGI [44] was 7.66 µM, the GI50 [45] was 3.21 µM and the TGI [45] was 15.5 µM. For the same compound, the GI50 [46] was 2 µM, the TGI [46] was 4.78 µM and the GI50 [47] was 2.22 µM. The TGI [47] was 9.32 µM, the GI50 [48] was 3.53 µM and the TGI [48] was 14.9 µM. The GI50 [49] was 3.42 µM, the TGI [49] was 21.6 µM and the GI50 [50] was 1.74 µM. It also gave a TGI [50] of 29.9 µM, a GI50 [51] of 2.47 µM and a TGI [51] greater than 100 µM. The GI50 [52] was 2.25 µM, the TGI [52] was 11.6 µM and the GI50 [53] was 3.99 µM. It also gave a TGI [53] of 23 µM, a GI50 [54] of 4.02 µM and a TGI [54] of 26.7 µM. The GI50 [55] was 2.62 µM, the TGI [55] was 37.6 µM and the GI50 [56] was 2.3 µM. It also gave a TGI [56] of 6.25 µM, a GI50 [57] of 2.28 µM and a TGI [57] of 15.8 µM. It also gave a GI50 [58] of 3.97 µM and a TGI [58] of 25.5 µM.

Work on `c1cc(N[C@@H]2CCNC2)nc(-c2cnc3ccc(-c4cn[nH]c4)cn23)c1` yielded a GI50 [1] of 14.1 µM, a TGI [1] of 39.4 µM and a GI50 [2] of 6.98 µM. It also gave a TGI [2] of 26.9 µM, a GI50 [3] of 0.916 µM and a TGI [3] of 3.55 µM. The GI50 [4] was 4.26 µM, the TGI [4] was 34.9 µM and the GI50 [5] was 3.56 µM. For the same compound, the TGI [5] was 36.1 µM, the GI50 [6] was greater than 100 µM and the TGI [6] was greater than 100 µM. It also gave a GI50 [7] of 5.07 µM, a TGI [7] of 35.9 µM and a GI50 [8] of 4.35 µM. It also gave a TGI [8] of 16.9 µM, a GI50 [9] of 11.2 µM and a TGI [9] of 26.7 µM. It also gave a GI50 [10] of 12 µM, a TGI [10] greater than 55 µM and a GI50 [11] of 4.99 µM. It also gave a TGI [11] of 47.8 µM, a GI50 [13] of 3.43 µM and a TGI [13] greater than 100 µM. The GI50 [14] was 1.88 µM, the TGI [14] was 5.77 µM and the GI50 [15] was 2.37 µM. The TGI [15] was 10.1 µM, the GI50 [16] was 4.39 µM and the TGI [16] was 51.6 µM. For the same compound, the GI50 [17] was 10.6 µM, the TGI [17] was greater than 83.1 µM and the GI50 [18] was 22.1 µM. The TGI [18] was 66.6 µM, the GI50 [19] was 0.795 µM and the TGI [19] was 13.4 µM. The GI50 [20] was 1.61 µM, the TGI [20] was 8.17 µM and the GI50 [21] was 0.868 µM. It also gave a TGI [21] of 51.4 µM, a GI50 [22] of 9.95 µM and a TGI [22] of 35.5 µM. For the same compound, the GI50 [23] was 3.31 µM, the TGI [23] was 20.4 µM and the GI50 [24] was 4.13 µM. For the same compound, the TGI [24] was greater than 100 µM, the GI50 [25] was 7.01 µM and the TGI [25] was 29 µM. It also gave a GI50 [26] of 12.1 µM, a TGI [26] greater than 96.8 µM and a GI50 [27] of 19.2 µM. The TGI [27] was greater than 100 µM, the GI50 [28] was 3.24 µM and the TGI [28] was 15.1 µM. It also gave a GI50 [29] of 2.84 µM, a TGI [29] of 9.92 µM and a GI50 [30] of 6.23 µM. The TGI [30] was 29.6 µM, the GI50 [31] was 2.18 µM and the TGI [31] was 7.1 µM. The GI50 [32] was 2.04 µM, the TGI [32] was 9.3 µM and the GI50 [33] was 1.69 µM. The TGI [33] was 5.54 µM, the GI50 [34] was greater than 47.9 µM and the TGI [34] was greater than 100 µM. It also gave a GI50 [35] greater than 69.3 µM, a TGI [35] greater than 100 µM and a GI50 [36] of 5.02 µM. For the same compound, the TGI [36] was 20.3 µM, the GI50 [37] was 2.55 µM and the TGI [37] was 6.82 µM. For the same compound, the GI50 [38] was 16.1 µM, the TGI [38] was 53.3 µM and the GI50 [39] was greater than 100 µM. The TGI [39] was greater than 100 µM, the GI50 [40] was 15.3 µM and the TGI [40] was 62.8 µM. For the same compound, the GI50 [41] was 3.63 µM, the TGI [41] was greater than 55.6 µM and the GI50 [42] was 5.46 µM. For the same compound, the TGI [42] was 17.6 µM, the GI50 [43] was 1.38 µM and the TGI [43] was 4.51 µM. For the same compound, the GI50 [44] was 9.09 µM, the TGI [44] was greater than 100 µM and the GI50 [45] was 7.8 µM. It also gave a TGI [45] of 68.6 µM, a GI50 [46] of 2.92 µM and a TGI [46] of 24.8 µM. For the same compound, the GI50 [47] was 11 µM, the TGI [47] was 43.9 µM and the GI50 [48] was 22.8 µM. For the same compound, the TGI [48] was greater than 100 µM, the GI50 [49] was 3.06 µM and the TGI [49] was 8.32 µM. For the same compound, the GI50 [50] was 13.7 µM, the TGI [50] was 44.9 µM and the GI50 [51] was 3.26 µM. It also gave a TGI [51] of 14.4 µM, a GI50 [52] of 2.56 µM and a TGI [52] of 11.7 µM. The GI50 [53] was 3.46 µM, the TGI [53] was 9.85 µM and the GI50 [54] was 6.47 µM. The TGI [54] was greater than 92.8 µM, the GI50 [55] was 6.83 µM and the TGI [55] was 52.1 µM. The GI50 [56] was 16.7 µM, the TGI [56] was 80.3 µM and the GI50 [57] was 3.11 µM. It also gave a TGI [57] of 18.3 µM, a GI50 [58] of 6.06 µM and a TGI [58] greater than 95.4 µM.
